# Read-outs that look alike come from different tables or passages of the source.
# Experiments:
# C. albicans [1] = experiment: Sustained inhibition biofilm assay, fungal; format: cell-based, Candida albicans
# Procedure: (§1) Two types of biofilm assays were performed: a sustained inhibition assay and a disruption assay. The sustained inhibition assay assesses the compound's ability to prevent biofilm development throughout all stages of biofilm formation, while the disruption assay assesses the compound's ability to break up an existing mature biofilm. These assays are described in detail in the following article: Lohse, M. B., Gulati, M., Valle Arevalo, A., Fishburn, A., Johnson, A. D., and Nobile, C. […] Antimicrobial Agents and Chemotherapy 61: e02749-16.
# (§2) All bacterial biofilm solutions were prepared in Trypic Soy Broth (TSB), supplemented with 1% glucose (henceforth referred to as TSB-G). All subsequent procedures were performed in a manner that maintained sterility. A solution of each amino acid to be tested was prepared in weight to volume concentrations ranging from 0.1-5.0%. Amino acids were also tested in combinations. Compound solutions were homogenized with gentle agitation in the dark (4° C., 24 hours) before use.
# (§3) Fungal strains were streaked on Yeast Peptone Dextrose (YPD) agar plates and incubated at 30° C. for 48 hours. A single colony from each strain to be tested was inoculated into YPD broth and grown for 12 hours, at 30° C., shaking at 225 rpm. […] The cells were allowed to adhere to the plate for 90 minutes at 37° C. with shaking (350 rpm). […] The plate was further incubated for 24 hours at 37° C. with shaking (350 rpm). Media was carefully aspirated and the biofilm was measured by optical density at 600 nm. […] The cells were allowed to adhere to the plate for 90 minutes at 37° C. with shaking (350 rpm). […] The plate was further incubated for 24 hours at 37° C. with shaking (350 rpm). […] The plate was further incubated for 24 hours at 37° C. with shaking (350 rpm). Media was carefully aspirated and the biofilm was measured by optical density at 600 nm.
# fungal biofilms = experiment: Biofilm assays (sustained inhibition and/or disruption), fungal biofilms; format: cell-based; settings: in at least one of the two biofilm assays; for Anti-biofilm effect against fungal biofilms (reduction): administered individually
# Procedure: (§4) Two types of biofilm assays were performed: a sustained inhibition assay and a disruption assay. The sustained inhibition assay assesses the compound's ability to prevent biofilm development throughout all stages of biofilm formation, while the disruption assay assesses the compound's ability to break up an existing mature biofilm. These assays are described in detail in the following article: Lohse, M. B., Gulati, M., Valle Arevalo, A., Fishburn, A., Johnson, A. D., and Nobile, C. J. (2017) Assessment and optimizations of Candida albicans in vitro biofilm assays. Antimicrobial Agents and Chemotherapy 61: e02749-16.
# as §2, with “For fungal biofilm assays, all solutions were prepared in RPMI 1640 medium. All bacterial” for “All bacterial”
# (§5) All biofilm assays were performed using 384-well non-tissue culture treated polystyrene plates. The fungal species tested are as follows: Candida albicans, Candida guilhermondii, Candida parapsilosis, Candida glabrata, Candida tropicalis, Candida dubliniensis, and Candida auris. The bacterial species tested are as follows: Staphylococcus aureus (standard wild type and methicillin-resistant strain USA300), Escherichia coli, Pseudomonas aeruginosa and Staphylococcus epidermidis.
# (§6) Fungal strains were streaked on Yeast Peptone Dextrose (YPD) agar plates and incubated at 30° C. for 48 hours. A single colony from each strain to be tested was inoculated into YPD broth and grown for 12 hours, at 30° C., shaking at 225 rpm. For the fungal biofilm inhibition assay, 1 μl of saturated overnight cell culture was added to either 80 μL of RPMI-1640 or RPMI-1640 supplemented with the amino acid compound solution to be tested, in a 384-well plate. The cells were allowed to adhere to the plate for 90 minutes at 37° C. with shaking (350 rpm). Loosely bound cells were washed once with phosphate buffered saline (PBS) and 80 ul of RPMI-1640, or RPMI-1640 supplemented with the amino acid compound solution was added to the plate. The plate was further incubated for 24 hours at 37° C. with shaking (350 rpm). Media was carefully aspirated and the biofilm was measured by optical density at 600 nm. Twelve replicates were performed for each tested condition and the reported values are normalized to the control (RPMI-1640 media only). For the fungal biofilm disruption assays, 80 μL of RPMI-1640 was added to the plate, along with 1 μL of overnight cell culture. The cells were allowed to adhere to the plate for 90 minutes at 37° C. with shaking (350 rpm). Loosely bound cells were washed once with PBS and 80 μL of RPMI-1640 was added to the plate. The plate was further incubated for 24 hours at 37° C. with shaking (350 rpm). Media was carefully aspirated from the mature biofilm and 80 μL of RPMI-1640, or RPMI-1640 supplemented with the amino acid compound solution to be tested, was gently added to the plate. The plate was further incubated for 24 hours at 37° C. with shaking (350 rpm). Media was carefully aspirated and the biofilm was measured by optical density at 600 nm. Twelve replicates were performed for each tested condition and the reported values are normalized to the control (RPMI-1640 media only).
# S. aureus [2] = experiment: Disruption biofilm assay, bacterial; format: cell-based, Staphylococcus aureus; settings: Staphylococcus aureus; for inhibition at 1 %: 24 h, read-out: Reduce B Biofilm
# Procedure: as §1, §2
# (§7) Bacterial strains were streaked on Blood Agar plates (5% sheep blood in Tryptic Soy Agar) and incubated at 37° C. for 24 hours. A single colony from each strain to be tested was inoculated in a TSB broth and grown for 12 hours, at 37° C. with shaking (225 rpm). For the bacterial biofilm inhibition assays, 1 μL of saturated overnight cell culture was added to either 80 μL of TSB-G, or TSB-G supplemented with the amino acid compound solution to be tested, in a 384-well plate. The cells were allowed to adhere to the plate for 60 minutes at 37° C. without shaking. The media was carefully aspirated and 80 μL of TSB-G, or TSB-G supplemented with the amino acid compound solution was added to the plate. The plate was further incubated for 24 hours at 37° C. without shaking. Media was carefully aspirated and the biofilm was measured by optical density at 600 nm. Eight or twelve replicates were performed for each tested condition and the reported values are normalized to the control (TSB-G media only). For the bacterial biofilm disruption assays, 80 μL of TSB-G was added to the plate, along with 1 μL of overnight cell culture. The cells were allowed to adhere to the plate for 60 minutes at 37° C. with no shaking. The media was carefully aspirated and 80 μL of TSB-G was added to the plate. The plate was further incubated for 24 hours at 37° C. with no shaking. Media was carefully aspirated from the mature biofilm and 80 μL of TSB-G, or TSB-G supplemented with the amino acid to be tested, was gently added to the plate. The plate was further incubated for 24 hours at 37° C. without shaking. Media was aspirated and the biofilm was measured by optical density at 600 nm. Twelve replicates were performed for each tested condition and the reported values are normalized to the control (TSB-G media only).
# [3] = system: bacteria (S. aureus) biofilm and fungal (C. albicans) biofilm; experiment: Sustained inhibition biofilm assay, bacterial and fungal taken together; format: cell-based
# Procedure: as §4
# as §2, with “For fungal biofilm assays, all solutions were prepared in RPMI 1640 medium. All bacterial” for “All bacterial”
# (§8) Fungal strains were streaked on Yeast Peptone Dextrose (YPD) agar plates and incubated at 30° C. for 48 hours. A single colony from each strain to be tested was inoculated into YPD broth and grown for 12 hours, at 30° C., shaking at 225 rpm. For the fungal biofilm inhibition assay, 1 μl of saturated overnight cell culture was added to either 80 μL of RPMI-1640 or RPMI-1640 supplemented with the amino acid compound solution to be tested, in a 384-well plate. […] Media was carefully aspirated and the biofilm was measured by optical density at 600 nm. […] Media was carefully aspirated and the biofilm was measured by optical density at 600 nm. […]
# (§9) Bacterial strains were streaked on Blood Agar plates (5% sheep blood in Tryptic Soy Agar) and incubated at 37° C. for 24 hours. […] Media was carefully aspirated and the biofilm was measured by optical density at 600 nm. […]
# C. albicans [4] = experiment: Disruption biofilm assay, fungal; format: cell-based, Candida albicans
# Procedure: as §1, §2, §3
# S. aureus [5] = experiment: Sustained inhibition biofilm assay, bacterial; format: cell-based, Staphylococcus aureus
# Procedure: as §1, §2, §7
# [6] = system: bacteria (S. aureus) biofilm and fungal (C. albicans) biofilm; experiment: Disruption biofilm assay, bacterial and fungal taken together; format: cell-based
# Procedure: as §4
# as §2, with “For fungal biofilm assays, all solutions were prepared in RPMI 1640 medium. All bacterial” for “All bacterial”
# as §8, §9
# [7] = system: fungal and bacterial biofilms; experiment: Biofilm assays (sustained inhibition and disruption), fungal and bacterial biofilms; format: cell-based
# Procedure: as §4
# as §2, with “For fungal biofilm assays, all solutions were prepared in RPMI 1640 medium. All bacterial” for “All bacterial”
# as §5, §6
# Bacterial strains were streaked on Blood Agar plates (5% sheep blood in Tryptic Soy Agar) and incubated at 37° C. for 24 hours. A single colony from each strain to be tested was inoculated in a TSB broth and grown for 12 hours, at 37° C. with shaking (225 rpm).
# [8] = Thermal stability in hot aqueous solution; format: physicochemical; settings: water at about 90° C. to 100° C.
# Text: This ingredient is the non-essential amino acid glutamine.
# bacterial biofilms = experiment: Biofilm assays (sustained inhibition and/or disruption), bacterial biofilms; format: cell-based; settings: in at least one of the two biofilm assays
# Procedure: as §4
# as §2, with “For fungal biofilm assays, all solutions were prepared in RPMI 1640 medium. All bacterial” for “All bacterial”
# as §5, §7
# [9] = sustained inhibition assay, C. albicans, 1% amino acid (unless specifically noted), p≤0.001
# [10] = disruption assay, S. aureus, 1% amino acid (unless specifically noted), p≤0.001
# [11] = disruption assay, C. albicans, 1% amino acid (unless specifically noted), p≤0.001
smiles,measurement,setting,value
"Cn1cncc1C[C@H](N)C(=O)O [3-Methylhistidine, 3-methyl-L-histidine]",Promote F Biofilm,C. albicans [1]; [9],● (a single dot [ie. •] signifies minor effect (from about 10 to about 30% change))
same,Effect on fungal biofilm growth,fungal biofilms,support (improve) fungal biofilm growth
same,inhibition at 1 %,S. aureus [2]; [10],10 to 30%
"N[C@@H](CS)C(=O)O [Cysteine, L-cysteine]",Reduce Both,"[3]; sustained inhibition assay, bacterial and fungal biofilm, 1% amino acid (unless specifically noted), p≤0.001",●● (two dots [ie. ••] signifies major effect (greater than about 30% change))
same,Reduce F Biofilm,C. albicans [4]; [11],●● (two dots [ie. ••] signifies major effect (greater than about 30% change))
same,Reduce F Biofilm,C. albicans [1]; [9],●● (two dots [ie. ••] signifies major effect (greater than about 30% change))
same,inhibition at 1 %,S. aureus [2]; [10],> 30%
same,Reduce B Biofilm,"S. aureus [5]; sustained inhibition assay, S. aureus, 1% amino acid (unless specifically noted), p≤0.001",●● (two dots [ie. ••] signifies major effect (greater than about 30% change))
same,Reduce Both,"[6]; disruption assay, bacterial and fungal biofilm, 1% amino acid (unless specifically noted), p≤0.001",●● (two dots [ie. ••] signifies major effect (greater than about 30% change))
"NCCO [Ethanolamine, ethanolamine]",Reduce F Biofilm,C. albicans [1]; [9],● (a single dot [ie. •] signifies minor effect (from about 10 to about 30% change))
same,Anti-biofilm effect against fungal biofilms (reduction),fungal biofilms,less than twofold
"N[C@@H](CCC(=O)O)C(=O)O [Glutamic Acid, L-glutamic acid]",Reduce Both,[3],●● (two dots [ie. ••] signifies major effect (greater than about 30% change))
same,Effect on biofilms,[7]; single component on its own,very active against biofilms
same,Reduce F Biofilm,C. albicans [4],●● (two dots [ie. ••] signifies major effect (greater than about 30% change))
same,Reduce F Biofilm,C. albicans [1],●● (two dots [ie. ••] signifies major effect (greater than about 30% change))
same,inhibition at 1 %,S. aureus [2],> 30%
same,Reduce B Biofilm,S. aureus [5],●● (two dots [ie. ••] signifies major effect (greater than about 30% change))
same,Reduce Both,[6],●● (two dots [ie. ••] signifies major effect (greater than about 30% change))
"NC(=O)CC[C@H](N)C(=O)O [Glutamine, L-glutamine]",Effect on bacterial or fungal biofilms in both assays,[7]; sustained inhibition and disruption,neutral
same,Thermal degradation in aqueous solution,[8],highly susceptible to thermal degradation
"N[C@@H](COP(=O)(O)O)C(=O)O [Phosphoserine, O-phospho-L-serine]",Reduce F Biofilm,C. albicans [4]; [11],● (a single dot [ie. •] signifies minor effect (from about 10 to about 30% change))
same,Anti-biofilm effect against fungal biofilms (reduction),fungal biofilms,less than twofold
same,inhibition at 1 %,S. aureus [2]; [10],10 to 30%
"O=C(O)[C@@H]1CCCN1 [Proline, L-proline]",Reduce F Biofilm,C. albicans [4]; [11],● (a single dot [ie. •] signifies minor effect (from about 10 to about 30% change))
same,Anti-biofilm effect against fungal biofilms (reduction),fungal biofilms,less than twofold
same,activation at 1 %,"S. aureus [2]; disruption assay, S. aureus, 1% amino acid (unless specifically noted), p≤0.001, read-out: Promote B Biofilm",10 to 30%
same,Effect on bacterial biofilm growth,bacterial biofilms,support (improve) bacterial biofilm growth
"CC(C)[C@H](N)C(=O)O [Valine, L-valine]",Promote F Biofilm,C. albicans [1]; [9],● (a single dot [ie. •] signifies minor effect (from about 10 to about 30% change))
same,Effect on fungal biofilm growth,fungal biofilms,support (improve) fungal biofilm growth
same,inhibition at 1 %,S. aureus [2]; [10],10 to 30%

# — patent US11779559B2, “Compositions for treating fungal and bacterial biofilms and methods of using the same” (priority 2017, dated 2023)
